Each block holds one molecule with its values, some of them ahead of it. The source made the active and inactive calls. The rule behind the calls is not given here.
Experiments:
[1] = Binding affinity to Tel-26nt G-rich DNA (unknown origin) assessed as change in melting temperature at 2 uM by UV-vis spectrophotometry
[2] = test system: HepG2; assay: Antiproliferative activity against human HepG2 cells incubated for 36 hrs by CCK8 assay; format: functional, cell-based; conditions: HepG2, 36 h
[3] = test system: MCF7; assay: Inhibition of cell migration in human MCF7 cells at 0.4 uM incubated for 48 hrs by wound healing assay relative to control; format: functional; conditions: MCF7, 48 h
[4] = test system: A549; assay: Antiproliferative activity against human A549 cells incubated for 36 hrs by CCK8 assay; format: functional, cell-based; conditions: A549, 36 h
[5] = Binding affinity to Tel-26nt G-rich DNA (unknown origin) assessed as change in melting temperature by UV-vis spectrophotometry
[6] = Selectivity index, ratio of IC50 for human MRC5 cells to IC50 for human HEPG2 cells
[7] = test system: HepG2; assay: Inhibition of cell migration in human HepG2 cells at 0.2 uM incubated for 48 hrs by wound healing assay relative to control; format: functional; conditions: HepG2, 48 h
[8] = Binding affinity to Tel-26nt G-rich DNA (unknown origin) assessed as change in melting temperature at 4 uM by UV-vis spectrophotometry (reference value: 38.33 +/- 0.07 degreeC)
[9] = test system: A549; assay: Inhibition of cell migration in human A549 cells at 0.1 uM incubated for 48 hrs by wound healing assay relative to control; format: functional; conditions: A549, 48 h
[10] = Selectivity index, ratio of IC50 for human MRC5 cells to IC50 for human MCF7 cells; format: toxicity; conditions: MRC5 cells versus MCF7 cells, read-out: Ratio IC50
[11] = test system: AGS; assay: Antiproliferative activity against human AGS cells at 10 uM incubated for 36 hrs by CCK8 assay; format: functional, cell-based
[12] = test system: MCF7; assay: Antiproliferative activity against human MCF7 cells incubated for 36 hrs by CCK8 assay; format: functional, cell-based; conditions: MCF7, 36 h
[13] = test system: HepG2; assay: Inhibition of cell migration in human HepG2 cells at 0.4 uM incubated for 48 hrs by wound healing assay relative to control; format: functional; conditions: HepG2, 48 h
[14] = test system: HepG2; assay: Inhibition of cell migration in human HepG2 cells at 0.1 uM incubated for 48 hrs by wound healing assay relative to control; format: functional; conditions: HepG2, 48 h
[15] = test system: A549; assay: Inhibition of cell migration in human A549 cells at 0.2 uM incubated for 48 hrs by wound healing assay relative to control; format: functional; conditions: A549, 48 h
[16] = target: Telomerase reverse transcriptase (Homo sapiens) (UniProt O14746); assay: Inhibition of telomerase activity in human A549 cells at 2 to 8 uM by TRAP assay; format: cell-based
[17] = test system: AGS; assay: Inhibition of cell migration in human AGS cells at 0.4 uM incubated for 48 hrs by wound healing assay relative to control; format: functional
[18] = test system: A549; assay: Inhibition of cell migration in human A549 cells at 0.4 uM incubated for 48 hrs by wound healing assay relative to control; format: functional; conditions: A549, 48 h
[19] = test system: MCF7; assay: Inhibition of cell migration in human MCF7 cells at 0.1 uM incubated for 48 hrs by wound healing assay relative to control; format: functional; conditions: MCF7, 48 h
[20] = Selectivity index, ratio of IC50 for human MRC5 cells to IC50 for human A549 cells; format: toxicity; conditions: MRC5 cells versus A549 cells, read-out: Ratio IC50
[21] = Binding affinity to Tel-26nt G-rich DNA (unknown origin) assessed as change in melting temperature at 8 uM by UV-vis spectrophotometry (reference value: 38.33 +/- 0.07 degreeC)
[22] = test system: MRC5; assay: Antiproliferative activity against human MRC5 cells incubated for 36 hrs by CCK8 assay; format: cell-based; conditions: MRC5, 36 h
[23] = test system: MCF7; assay: Antiproliferative activity against human MCF7 cells at 10 uM incubated for 36 hrs by CCK8 assay; format: functional, cell-based
[24] = Binding affinity to Tel-26nt G-rich DNA (unknown origin) assessed as change in melting temperature at 2 uM by UV-vis spectrophotometry (reference value: 38.33 +/- 0.07 degreeC)
[25] = Binding affinity to Tel-26nt G-rich DNA (unknown origin) incubated for 24 hrs by EMSA
[26] = test system: HepG2; assay: Antiproliferative activity against human HepG2 cells at 10 uM incubated for 36 hrs by CCK8 assay; format: functional, cell-based
[27] = test system: AGS; assay: Antiproliferative activity against human AGS cells incubated for 36 hrs by CCK8 assay; format: functional, cell-based
[28] = test system: A549; assay: Antiproliferative activity against human A549 cells at 10 uM incubated for 36 hrs by CCK8 assay; format: functional, cell-based
[29] = test system: AGS; assay: Inhibition of cell migration in human AGS cells at 0.1 uM incubated for 48 hrs by wound healing assay relative to control; format: functional
[30] = Selectivity index, ratio of IC50 for human MRC5 cells to IC50 for human AGS cells; format: toxicity; conditions: MRC5 cells versus AGS cells, read-out: Ratio IC50
[31] = test system: MCF7; assay: Inhibition of cell migration in human MCF7 cells at 0.2 uM incubated for 48 hrs by wound healing assay relative to control; format: functional; conditions: MCF7, 48 h
[32] = Binding affinity to Tel-26nt G-rich DNA (unknown origin) at => 3 uM incubated for 24 hrs by EMSA
[33] = test system: AGS; assay: Inhibition of cell migration in human AGS cells at 0.2 uM incubated for 48 hrs by wound healing assay relative to control; format: functional
[34] = Binding affinity to Tel-26nt G-rich DNA (unknown origin) at 0.25 :1 to 6 : 1 ratio of test compound to DNA measured after each titration for 15 mins during 24 hrs incubation by circular dichroism analysis
[35] = Binding affinity to Tel-26nt mutated-single-stranded DNA (unknown origin) at 4 to 16 uM measured after each titration for 15 mins during 24 hrs incubation by circular dichroism analysis
[36] = Binding affinity to Tel-26nt G-rich DNA (unknown origin) at 4 to 16 uM measured after each titration for 15 mins during 24 hrs incubation by circular dichroism analysis
[37] = Binding affinity to Tel26nt double stranded DNA (unknown origin) at 4 to 16 uM measured after each titration for 15 mins during 24 hrs incubation by circular dichroism analysis

Sequence of Telomerase reverse transcriptase (Homo sapiens) (O14746 whole entry): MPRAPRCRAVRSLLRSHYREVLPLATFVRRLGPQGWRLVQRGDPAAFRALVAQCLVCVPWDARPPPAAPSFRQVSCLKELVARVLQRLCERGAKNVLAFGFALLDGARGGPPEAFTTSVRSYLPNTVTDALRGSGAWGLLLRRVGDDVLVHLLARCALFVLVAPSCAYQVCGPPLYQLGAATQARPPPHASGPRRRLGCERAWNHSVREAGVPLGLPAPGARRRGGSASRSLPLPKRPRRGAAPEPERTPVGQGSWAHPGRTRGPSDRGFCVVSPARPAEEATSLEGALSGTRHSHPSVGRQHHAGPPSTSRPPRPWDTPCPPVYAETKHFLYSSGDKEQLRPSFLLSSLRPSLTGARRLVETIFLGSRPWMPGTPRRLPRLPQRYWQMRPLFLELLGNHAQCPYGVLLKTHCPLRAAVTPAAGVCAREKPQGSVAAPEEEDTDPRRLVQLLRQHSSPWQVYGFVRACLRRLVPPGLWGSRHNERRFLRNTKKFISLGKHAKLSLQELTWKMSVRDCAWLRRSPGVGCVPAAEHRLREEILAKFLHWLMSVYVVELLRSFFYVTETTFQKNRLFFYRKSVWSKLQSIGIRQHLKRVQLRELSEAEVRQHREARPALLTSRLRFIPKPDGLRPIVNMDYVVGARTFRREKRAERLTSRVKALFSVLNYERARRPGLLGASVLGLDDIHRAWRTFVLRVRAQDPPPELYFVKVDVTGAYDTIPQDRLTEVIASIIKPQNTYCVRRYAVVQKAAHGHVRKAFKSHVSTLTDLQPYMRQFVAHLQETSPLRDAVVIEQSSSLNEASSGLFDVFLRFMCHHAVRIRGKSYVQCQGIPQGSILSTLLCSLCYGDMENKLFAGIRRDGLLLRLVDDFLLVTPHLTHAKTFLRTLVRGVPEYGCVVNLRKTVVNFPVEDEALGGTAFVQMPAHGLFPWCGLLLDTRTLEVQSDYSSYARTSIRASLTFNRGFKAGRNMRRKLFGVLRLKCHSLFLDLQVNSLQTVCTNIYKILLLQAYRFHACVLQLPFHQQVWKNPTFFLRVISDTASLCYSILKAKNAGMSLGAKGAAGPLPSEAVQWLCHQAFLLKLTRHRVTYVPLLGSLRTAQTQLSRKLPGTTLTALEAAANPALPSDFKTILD

- ΔTm [1]: 4.82 °C
- IC50 [2]: 6.43 µM
- IC50 [4]: 4.15 µM
- deltaTm [5]: Dose-dependent effect
- Tm [8]: 45.7 °C
- IC50 [12]: 11.8 µM
- inhibition [16]: Active
- Tm [21]: 43.4 °C
- Tm [24]: 45.6 °C
- Activity [25]: Dose-dependent effect
- IC50 [27]: 5.52 µM
- Activity [32]: Active
SMILES: CN(C)CCCn1cc(C=C2c3cccnc3-c3ncccc32)c(-c2ccc(Cl)cc2)n1
- inhibition at 0.4 µM [3]: 54.8%
- Ratio IC50 [6]: 1.52
- inhibition at 0.2 µM [7]: 43.2%
- inhibition at 0.1 µM [9]: 21.2%
- selectivity ratio [10]: 0.83
- growth inhibition (GI) [11]: Active
- inhibition at 0.4 µM [13]: 62.3%
- inhibition at 0.1 µM [14]: 19.4%
- inhibition at 0.2 µM [15]: 54.5%
- inhibition at 0.4 µM [17]: 80%
- inhibition at 0.4 µM [18]: 78%
- inhibition at 0.1 µM [19]: 17.9%
- selectivity ratio [20]: 2.36
- IC50 [22]: 9.81 µM
- growth inhibition (GI) [23]: Active
- growth inhibition (GI) [26]: Active
- growth inhibition (GI) [28]: Active
- inhibition at 0.1 µM [29]: 37.5%
- selectivity ratio [30]: 1.78
- inhibition at 0.2 µM [31]: 41.2%
- inhibition at 0.2 µM [33]: 56%

SMILES: Cc1ccc(-c2n[nH]cc2C=C2c3cccnc3-c3ncccc32)cc1
- growth inhibition (GI) [11]: Active
- growth inhibition (GI) [23]: Active
- growth inhibition (GI) [26]: Active
- growth inhibition (GI) [28]: Active

SMILES: O=[N+]([O-])c1ccc(-n2cc(C=C3c4cccnc4-c4ncccc43)c(-c3ccc(F)cc3)n2)c([N+](=O)[O-])c1
- growth inhibition (GI) [11]: Active
- growth inhibition (GI) [23]: Active
- growth inhibition (GI) [26]: Active
- growth inhibition (GI) [28]: Active

SMILES: Cc1ccc(-c2nnc(CN3C(=O)C(=C4c5cccnc5-c5ncccc54)SC3=S)o2)cc1
- growth inhibition (GI) [11]: Active
- growth inhibition (GI) [23]: Active
- growth inhibition (GI) [26]: Active
- growth inhibition (GI) [28]: Active

SMILES: Clc1ccc(-c2n[nH]cc2C=C2c3cccnc3-c3ncccc32)cc1
- growth inhibition (GI) [11]: Active
- growth inhibition (GI) [23]: Active
- growth inhibition (GI) [26]: Active
- growth inhibition (GI) [28]: Active

SMILES: Fc1ccc(-c2n[nH]cc2C=C2c3cccnc3-c3ncccc32)cc1
- growth inhibition (GI) [11]: Active
- growth inhibition (GI) [23]: Active
- growth inhibition (GI) [26]: Active
- growth inhibition (GI) [28]: Active

- IC50 [2]: 3.32 µM
- IC50 [4]: 3.44 µM
- deltaTm [5]: Dose-dependent effect
- Tm [8]: 44 °C
- IC50 [12]: 6.7 µM
- inhibition [16]: Active
- Tm [21]: 62.7 °C
- Tm [24]: 44 °C
- Activity [25]: Dose-dependent effect
- IC50 [27]: 2.93 µM
- Activity [32]: Active
SMILES: CN(C)CCCn1cc(C=C2c3cccnc3-c3ncccc32)c(-c2ccc(F)cc2)n1
- inhibition at 0.4 µM [3]: 63.9%
- Ratio IC50 [6]: 1.79
- inhibition at 0.2 µM [7]: 53.7%
- inhibition at 0.1 µM [9]: 18.3%
- selectivity ratio [10]: 0.88
- growth inhibition (GI) [11]: Active
- inhibition at 0.4 µM [13]: 69.9%
- inhibition at 0.1 µM [14]: 22.4%
- inhibition at 0.2 µM [15]: 47.9%
- inhibition at 0.4 µM [17]: 81.6%
- inhibition at 0.4 µM [18]: 74.5%
- inhibition at 0.1 µM [19]: 24.9%
- selectivity ratio [20]: 1.72
- IC50 [22]: 5.93 µM
- growth inhibition (GI) [23]: Active
- growth inhibition (GI) [26]: Active
- growth inhibition (GI) [28]: Active
- inhibition at 0.1 µM [29]: 44.5%
- selectivity ratio [30]: 2.02
- inhibition at 0.2 µM [31]: 45.7%
- inhibition at 0.2 µM [33]: 67.8%

- deltaTm [5]: Dose-dependent effect
- Tm [8]: 56.1 °C
- Activity [34]: Active
- Activity [35]: inactive
- Activity [36]: Active
- Tm [21]: 47 °C
- Activity [37]: inactive
- Tm [24]: 43.1 °C
- Activity [25]: Dose-dependent effect
- Activity [32]: inactive
SMILES: O=C1C(=C2c3cccnc3-c3ncccc32)SC(=S)N1Cc1nnc(-c2ccc(Br)cc2)o1
- growth inhibition (GI) [11]: Active
- growth inhibition (GI) [23]: Active
- growth inhibition (GI) [26]: Active
- growth inhibition (GI) [28]: Active

SMILES: Cc1ccc(-c2nn(Cc3ccccc3)cc2C=C2c3cccnc3-c3ncccc32)cc1
- growth inhibition (GI) [11]: Active
- growth inhibition (GI) [23]: Active
- growth inhibition (GI) [26]: Active
- growth inhibition (GI) [28]: Active

— ChEMBL document CHEMBL4359822, “Design, synthesis of 4,5-diazafluorene derivatives and their anticancer activity via targeting telomeric DNA G-quadruplex” (Eur J Med Chem, 2019)
